Experimental data taken from patent US10266535B2, “Inhibitor of FLT3 kinase and use thereof” (HEFEI INSTITUTES OF PHYSICAL SCIENCE, CHINESE ACADEMY OF …, priority 2015, dated 2019).
Where a name gives a salt, the structure may show the parent alone. Read-outs that look alike come from different tables or passages of the source.

Legend:
[1] = system: TEL-FLT3-BaF3 (stably expressing FLT3 kinase); assay: Cell proliferation, Cell Titer-Glo, TEL-FLT3-BaF3; assay type: cell-based; conditions: Mus musculus
Description: (§1) The above cell lines were constructed by our laboratory.
(§2) The number of viable cells was determined by quantification of ATP in living cells using the Cell Titer-Glo® (Promega, USA) chemiluminescence cell viability assay kit.

[2] = system: MV4-11 (expressing FLT3/ITD mutant gene); assay: Cell proliferation, Cell Titer-Glo, MV4-11; assay type: cell-based; conditions: Homo sapiens
How it was run: (§3)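 Read-out: luminescence from ATP in live cells (CellTiter-Glo), taken as viable cell number. Cell lines were built in-house.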

[3] = system: pro-B cell BaF3; assay: Cell proliferation, Cell Titer-Glo, BaF3; assay type: cell-based; conditions: Mus musculus, incubated for 72 hours
How it was run: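 Chemiluminescent ATP detection (CellTiter-Glo) gave the number of viable cells, used as the measure of proliferation in these laboratory-made BaF3 lines.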

[4] = system: TEL-BaF3-FLT3-D835Y (stably expressing FLT3 D835Y mutant activated kinase); assay: Cell proliferation, Cell Titer-Glo, TEL-BaF3-FLT3-D835Y; assay type: cell-based; conditions: Mus musculus
How it was run: (§4)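 Cells from the in-house-constructed BaF3 lines were grown with compound. Viability was then scored by chemiluminescent detection of cellular ATP.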

[5] = system: U937 (expressing wild-type FLT3 gene); assay: Cell proliferation, Cell Titer-Glo, U937; assay type: cell-based, human; conditions: Homo sapiens, U-937, 72 h
How it was run: as §3

[6] = system: TEL-cKIT-BaF3 (stably expressing cKIT kinase); assay: Cell proliferation, Cell Titer-Glo, TEL-cKIT-BaF3; assay type: cell-based; conditions: Mus musculus; incubated for 72 hours
How it was run: as §4

[7] = system: BaF3-FLT3-ITD-F691L (stably expressing FLT3/ITD F691L mutant activated kinase); assay: Cell proliferation, Cell Titer-Glo, BaF3-FLT3-ITD-F691L; assay type: cell-based; conditions: Mus musculus
Description: as §1, §2

[8] = biological target: BTK protein kinase (Homo sapiens (Human), UniProt Q06187); assay: In vitro inhibition activity (enzymatic activity), ADP-Glo, BTK; assay type: biochemical; conditions: ATP 10 μM
Sequence of BTK protein kinase (Q06187 whole entry): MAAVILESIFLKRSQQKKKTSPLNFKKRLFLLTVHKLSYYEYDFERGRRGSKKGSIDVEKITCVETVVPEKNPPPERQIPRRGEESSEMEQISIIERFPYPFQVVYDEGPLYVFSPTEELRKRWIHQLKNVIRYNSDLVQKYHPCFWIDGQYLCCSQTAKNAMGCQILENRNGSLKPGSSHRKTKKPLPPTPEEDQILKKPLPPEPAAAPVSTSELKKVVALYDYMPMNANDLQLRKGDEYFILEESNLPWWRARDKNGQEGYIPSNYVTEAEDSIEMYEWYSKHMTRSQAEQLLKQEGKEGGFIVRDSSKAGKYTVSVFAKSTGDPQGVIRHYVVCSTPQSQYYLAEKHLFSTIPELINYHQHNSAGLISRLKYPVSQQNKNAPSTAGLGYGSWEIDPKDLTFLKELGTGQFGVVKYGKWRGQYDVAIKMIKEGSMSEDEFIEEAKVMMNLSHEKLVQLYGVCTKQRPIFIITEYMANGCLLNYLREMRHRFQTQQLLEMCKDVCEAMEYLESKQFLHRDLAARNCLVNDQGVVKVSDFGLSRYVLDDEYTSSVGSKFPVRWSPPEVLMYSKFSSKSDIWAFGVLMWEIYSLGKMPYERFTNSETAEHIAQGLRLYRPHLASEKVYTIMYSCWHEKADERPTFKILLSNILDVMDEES

[9] = system: TEL-BaF3-FLT3/ITD (stably expressing FLT3/ITD mutant activated kinase); assay: Cell proliferation, Cell Titer-Glo, TEL-BaF3-FLT3/ITD; assay type: cell-based, mouse; conditions: Mus musculus, 72 h
How it was run: as §4

[10] = system: TEL-BaF3-BLK (stably expressing BLK kinase); assay: Cell proliferation, Cell Titer-Glo, TEL-BaF3-BLK; assay type: cell-based; conditions: Mus musculus; incubated for 72 hours
How it was run: as §4

[11] = system: TEL-BaF3-BMX (stably expressing BMX kinase); assay: Cell proliferation, Cell Titer-Glo, TEL-BaF3-BMX; assay type: cell-based; conditions: Mus musculus; incubated for 72 hours
How it was run: as §4

[12] = system: BaF3-FLT3-ITD-D835Y (stably expressing FLT3/ITD D835Y mutant activated kinase); assay: Cell proliferation, Cell Titer-Glo, BaF3-FLT3-ITD-D835Y; assay type: cell-based; conditions: Mus musculus
Description: as §1, §2

[13] = system: MOLM-14 (expressing FLT3/ITD mutant gene and wild-type FLT3 gene); assay: Cell proliferation, Cell Titer-Glo, MOLM-14; assay type: cell-based; conditions: Homo sapiens
How it was run: as §3

[14] = system: MOLM-14 cells; assay: Nude mouse subcutaneous tumor model with MOLM-14 cells; assay type: in vivo; conditions: oral gavage
Description: More than 30 mice (5-week-old) (Balb/c-nu female mice, purchased from Shanghai Snake Experimental Animal Co., Ltd.) were inoculated subcutaneously with MOLM-14 cells in 1×10^7 cells/mouse, the changes in body weight and tumor volume were recorded daily (tumor volume=Tumor length×tumor width^2/2).

[15] = system: MOLM-13 (expressing FLT3/ITD mutant gene and wild-type FLT3 gene); assay: Cell proliferation, Cell Titer-Glo, MOLM-13; assay type: cell-based; conditions: Homo sapiens
How it was run: as §3

[16] = system: Signaling pathways of FLT3 in MV4-11 and MOLM-14 cell lines; assay: Effects on upstream and downstream signaling pathways of FLT3 in cells; assay type: cell-based, human
[17] = system: TEL-BaF3-EGFR (stably expressing EGFR kinase); assay: Cell proliferation, Cell Titer-Glo, TEL-BaF3-EGFR; assay type: cell-based; conditions: Mus musculus; incubated for 72 hours
Description: as §1, §2

[18] = system: TPR-MET-BaF3 (stably expressing MET kinase); assay: Cell proliferation, Cell Titer-Glo, TPR-MET-BaF3; assay type: cell-based; conditions: Mus musculus; incubated for 72 hours
How it was run: as §4

[19] = incubated for 72 hours, read-out: TEL-FLT3-BaF3 IC50
[20] = MV4-11, incubated for 72 hours, read-out: MV4-11 IC50
[21] = incubated for 72 hours, read-out: U937 IC50
[22] = incubated for 72 hours, read-out: BaF3-FLT3-ITD-F691L IC50
[23] = incubated for 72 hours, read-out: BaF3-FLT3-ITD-D835Y IC50
[24] = MOLM-14, incubated for 72 hours, read-out: MOLM-14 IC50

Compound	IC50 [1, 19] [µM]	IC50 [2, 20] [µM]	IC50 [3] [nM]	IC50 [5, 21] [µM]	IC50 [6] [nM]	IC50 [7, 22] [µM]	IC50 [8] [nM]	IC50 [10] [nM]	IC50 [11] [nM]	IC50 [12, 23] [µM]	IC50 [13, 24] [µM]	further results
CN(C)CC(=O)NC1CCC(n2nc(-c3ccc(Oc4ccccc4)cc3)c3c(N)ncnc32)CC1 (stereo not drawn) [Compound 76, N-(4-(4-amino-3-(4-phenoxyphenyl)-1H-pyrazolo[3,4-d]pyrimidin-1-yl)cyclohexyl)-2-(dimethylamino)acetamide]	0.042	0.027	4200	> 10	430	0.18	388	30	120	0.13	0.036	IC50 ([4]; incubated for 72 hours, read-out: TEL-BaF3-FLT3-D835Y IC50): 0.023 µM; IC50 ([9]; read-out: TEL-BaF3-FLT3/ITD IC50 [μM]): 0.0067 µM
CC(C)C[C@@H](N)C(=O)NC1CCC(n2nc(-c3ccc(Oc4ccccc4)cc3)c3c(N)ncnc32)CC1.Cl (stereo partly drawn) [Compound 77, (R)-2-amino-N-(4-(4-amino-3-(4-phenoxyphenyl)-1H-pyrazolo[3,4-d]pyrimidin-1-yl)cyclohexyl)-4-methylpentanamide hydrochloride]			2200				128	2.6	52			tumor volume growth of the mice ([14]; 25 mg/kg/day): significantly slowed down; growth of the tumors of the mice ([14]; 50.0 mg/kg/day): almost no growth; tumor growth of the mice ([14]; 12.5-50 mg/kg, 2 to 3 weeks): significantly inhibited; IC50 ([1]; 72 h, read-out: TEL-FLT3-BaF3 IC50 [μM]): 0.0081 µM; IC50 ([2]; MV4-11, 72 h, read-out: MV4-11 IC50 [μM]): 0.0016 µM; IC50 ([4]; 72 h, read-out: TEL-BaF3-FLT3-D835Y IC50 [μM]): 0.021 µM; IC50 ([5]; read-out: U937 IC50 [μM], incubated for 72 hours): 3.4 µM; IC50 ([15]; MOLM-13, 72 h, read-out: MOLM-13 IC50 [μM]): 0.0027 µM; efficacy compared with Control Compound AC220 ([16]; AC220 at 0.1 μM): better efficacy; C-Myc (degradation; for AC220 phosphorylation) ([16]; treated for 4 hours): significant effects on the degradation; phosphorylation of STAT5 ([16]; treated for 4 hours): very strong inhibitory effects; phosphorylation of protein kinase FLT3 ([16]; treated for 4 hours): strongly inhibited; IC50 ([7]; 72 h, read-out: BaF3-FLT3-ITD-F691L IC50 [μM]): 0.067 µM; IC50 ([9]; incubated for 72 hours, read-out: TEL-BaF3-FLT3/ITD IC50): < 0.0003 µM; IC50 ([12]; 72 h, read-out: BaF3-FLT3-ITD-D835Y IC50 [μM]): 0.073 µM; IC50 ([13]; MOLM-14, 72 h, read-out: MOLM-14 IC50 [μM]): 0.0084 µM
CC(C)[C@@H](N)C(=O)NC1CCC(n2nc(-c3ccc(Oc4ccccc4)cc3)c3c(N)ncnc32)CC1 (stereo partly drawn) [Compound 86, (R)-2-amino-N-(4-(4-amino-(4-phenoxyphenyl)-1H-pyrazolo[3,4-d]pyrimidin-1-yl)cyclohexyl)-3-methylbutanamide hydrochloride]	0.004	0.02		1.4	270	0.15		1	< 0.3	0.006	0.005	IC50 ([15]; MOLM-13, incubated for 72 hours, read-out: MOLM-13 IC50): 0.001 µM; IC50 [17]: 1300 nM; IC50 [18]: 3300 nM
